From article PMC12090182, “Repurposing of the RIPK1-Selective Benzo[1,4]oxazepin-4-one Scaffold for the Development of a Type III LIMK1/2 Inhibitor” (ACS Chemical Biology, 2025)

System: MRC-9 cells
Assay: Multiplex high-content viability assessment
Type: cell-based
Conditions: for Cell count normalized to cells treated with DMSO control / Cell count per well / Population Fragmented Nuclei (%) / Population Healthy Nuclei (%) / Population Pyknosed Nuclei (%) / Population apoptotic cell (%) / Population cell that influence microtubule strucutre (%) / Population with increased mitochondrial mass (%) / Population with membrane disruption (%): human fibroblast
Protocol: To assess the influence on cell health, a high-content screening in living cells called the multiplex high-content assay, as described previously by Tjaden et al., was performed.[38] In brief, HEK293T (ATCC CRL-1573) and U2OS (ATCCHTB-96) were cultured in DMEM plus L-glutamine (high glucose) supplemented by 10% FBS (Gibco) and penicillin/streptomycin (Gibco). MRC-9 fibroblasts ([…]) were cultured in EMEM plus L-glutamine supplemented by 10% FBS (Gibco) and penicillin/streptomycin (Gibco). Cells were seeded at a density of 1250 cells per well in a 384-well plate in a culture medium (cell culture microplate, PS, f-bottom, μClear, 781091, Greiner), with a volume of 50 μL per well. All outer wells were filled with 100 μL of PBS buffer (Gibco). […] The cell shape and fluorescence were measured before treatment and 12, 24, and 48 h after compound treatment using the CQ1 high-content confocal microscope (Yokogawa, Musashino, Japan). […] The compounds were tested at 1 and 10 μM, respectively. Acquired images of the cells were processed using Yokogawa CellPathfinder software (v3.04.02.02). […] Results were normalized to cells exposed to 0.1% DMSO. All compounds were tested in biological duplicates, and SEM (standard error of mean) was calculated of biological duplicates.

## CN1C(=O)[C@@H](N2CCc3c(C(N)=O)nn(Cc4ccccc4)c3C2=O)COc2ccccc21 [Compound 11]
1 µM, 0 h, replicate 1
  Cell count normalized to cells treated with DMSO control: 1.108
  Cell count per well: 166
  Population Fragmented Nuclei (%): 16.15%
  Population Healthy Nuclei (%): 68.94%
  Population Pyknosed Nuclei (%): 14.91%
  Population apoptotic cell (%): 29.17%
  Population cell that influence microtubule strucutre (%): 21.62%
  Population with increased mitochondrial mass (%): 7.21%
  Population with membrane disruption (%): 0.00%
1 µM, 0 h, replicate 2
  Cell count normalized to cells treated with DMSO control: 0.9027
  Cell count per well: 161
  Population Fragmented Nuclei (%): 20.65%
  Population Healthy Nuclei (%): 50.97%
  Population Pyknosed Nuclei (%): 28.39%
  Population apoptotic cell (%): 29.55%
  Population cell that influence microtubule strucutre (%): 43.04%
  Population with increased mitochondrial mass (%): 7.59%
  Population with membrane disruption (%): 5.06%
1 µM, 12 h, replicate 1
  Cell count normalized to cells treated with DMSO control: 1.109
  Cell count per well: 167
  Population Fragmented Nuclei (%): 8.64%
  Population Healthy Nuclei (%): 75.31%
  Population Pyknosed Nuclei (%): 16.05%
  Population apoptotic cell (%): 34.62%
  Population cell that influence microtubule strucutre (%): 20.49%
  Population with increased mitochondrial mass (%): 3.28%
  Population with membrane disruption (%): 0.82%
1 µM, 12 h, replicate 2
  Cell count normalized to cells treated with DMSO control: 0.8825
  Cell count per well: 147
  Population Fragmented Nuclei (%): 22.70%
  Population Healthy Nuclei (%): 46.81%
  Population Pyknosed Nuclei (%): 30.50%
  Population apoptotic cell (%): 34.88%
  Population cell that influence microtubule strucutre (%): 56.06%
  Population with increased mitochondrial mass (%): 10.61%
  Population with membrane disruption (%): 4.55%
1 µM, 24 h, replicate 1
  Cell count normalized to cells treated with DMSO control: 1.1208
  Cell count per well: 169
  Population Fragmented Nuclei (%): 16.36%
  Population Healthy Nuclei (%): 70.30%
  Population Pyknosed Nuclei (%): 13.33%
  Population apoptotic cell (%): 45.45%
  Population cell that influence microtubule strucutre (%): 18.10%
  Population with increased mitochondrial mass (%): 3.45%
  Population with membrane disruption (%): 1.72%
1 µM, 24 h, replicate 2
  Cell count normalized to cells treated with DMSO control: 0.8977
  Cell count per well: 148
  Population Fragmented Nuclei (%): 25.34%
  Population Healthy Nuclei (%): 47.26%
  Population Pyknosed Nuclei (%): 27.40%
  Population apoptotic cell (%): 50.00%
  Population cell that influence microtubule strucutre (%): 57.97%
  Population with increased mitochondrial mass (%): 11.59%
  Population with membrane disruption (%): 5.80%
1 µM, 48 h, replicate 1
  Cell count normalized to cells treated with DMSO control: 1.035
  Cell count per well: 157
  Population Fragmented Nuclei (%): 12.50%
  Population Healthy Nuclei (%): 75.00%
  Population Pyknosed Nuclei (%): 12.50%
  Population apoptotic cell (%): 68.42%
  Population cell that influence microtubule strucutre (%): 16.67%
  Population with increased mitochondrial mass (%): 3.51%
  Population with membrane disruption (%): 0.88%
1 µM, 48 h, replicate 2
  Cell count normalized to cells treated with DMSO control: 0.8596
  Cell count per well: 140
  Population Fragmented Nuclei (%): 27.61%
  Population Healthy Nuclei (%): 55.22%
  Population Pyknosed Nuclei (%): 17.16%
  Population apoptotic cell (%): 39.13%
  Population cell that influence microtubule strucutre (%): 47.30%
  Population with increased mitochondrial mass (%): 9.46%
  Population with membrane disruption (%): 2.70%
1 μM, MRC-9
  cytotoxicity: no cytotoxicity
10 µM, 0 h, replicate 1
  Cell count normalized to cells treated with DMSO control: 0.9342
  Cell count per well: 140
  Population Fragmented Nuclei (%): 19.23%
  Population Healthy Nuclei (%): 57.69%
  Population Pyknosed Nuclei (%): 23.08%
  Population apoptotic cell (%): 33.33%
  Population cell that influence microtubule strucutre (%): 24.00%
  Population with increased mitochondrial mass (%): 6.67%
  Population with membrane disruption (%): 1.33%
10 µM, 0 h, replicate 2
  Cell count normalized to cells treated with DMSO control: 0.8634
  Cell count per well: 154
  Population Fragmented Nuclei (%): 23.88%
  Population Healthy Nuclei (%): 43.28%
  Population Pyknosed Nuclei (%): 32.84%
  Population apoptotic cell (%): 40.91%
  Population cell that influence microtubule strucutre (%): 39.66%
  Population with increased mitochondrial mass (%): 15.52%
  Population with membrane disruption (%): 8.62%
10 µM, 12 h, replicate 1
  Cell count normalized to cells treated with DMSO control: 0.8966
  Cell count per well: 135
  Population Fragmented Nuclei (%): 18.46%
  Population Healthy Nuclei (%): 53.08%
  Population Pyknosed Nuclei (%): 28.46%
  Population apoptotic cell (%): 67.57%
  Population cell that influence microtubule strucutre (%): 69.57%
  Population with increased mitochondrial mass (%): 15.94%
  Population with membrane disruption (%): 1.45%
10 µM, 12 h, replicate 2
  Cell count normalized to cells treated with DMSO control: 0.8165
  Cell count per well: 136
  Population Fragmented Nuclei (%): 28.57%
  Population Healthy Nuclei (%): 55.46%
  Population Pyknosed Nuclei (%): 15.97%
  Population apoptotic cell (%): 47.37%
  Population cell that influence microtubule strucutre (%): 83.33%
  Population with increased mitochondrial mass (%): 30.30%
  Population with membrane disruption (%): 7.58%
10 µM, 24 h, replicate 1
  Cell count normalized to cells treated with DMSO control: 0.8754
  Cell count per well: 132
  Population Fragmented Nuclei (%): 17.21%
  Population Healthy Nuclei (%): 55.74%
  Population Pyknosed Nuclei (%): 27.05%
  Population apoptotic cell (%): 60.61%
  Population cell that influence microtubule strucutre (%): 72.06%
  Population with increased mitochondrial mass (%): 17.65%
  Population with membrane disruption (%): 1.47%
10 µM, 24 h, replicate 2
  Cell count normalized to cells treated with DMSO control: 0.8068
  Cell count per well: 133
  Population Fragmented Nuclei (%): 30.89%
  Population Healthy Nuclei (%): 56.10%
  Population Pyknosed Nuclei (%): 13.01%
  Population apoptotic cell (%): 56.25%
  Population cell that influence microtubule strucutre (%): 65.22%
  Population with increased mitochondrial mass (%): 20.29%
  Population with membrane disruption (%): 5.80%
10 µM, 48 h, replicate 1
  Cell count normalized to cells treated with DMSO control: 0.8898
  Cell count per well: 135
  Population Fragmented Nuclei (%): 23.81%
  Population Healthy Nuclei (%): 54.76%
  Population Pyknosed Nuclei (%): 21.43%
  Population apoptotic cell (%): 85.19%
  Population cell that influence microtubule strucutre (%): 56.52%
  Population with increased mitochondrial mass (%): 14.49%
  Population with membrane disruption (%): 0.00%
10 µM, 48 h, replicate 2
  Cell count normalized to cells treated with DMSO control: 0.8904
  Cell count per well: 145
  Population Fragmented Nuclei (%): 38.30%
  Population Healthy Nuclei (%): 58.16%
  Population Pyknosed Nuclei (%): 3.55%
  Population apoptotic cell (%): 60.00%
  Population cell that influence microtubule strucutre (%): 71.95%
  Population with increased mitochondrial mass (%): 18.29%
  Population with membrane disruption (%): 3.66%
